The series can be described thus: refractive index (Na D-line) (dimensionless); wn = mass fraction of the nth substance listed. To be noted: 288.15 K, 100 kPa, Liquid, Standard Abbe refractometry.

± gives the expanded uncertainty stated by the source.

For the molecule `[Br-].[Br-].[Ca+2]` [calcium bromide] + O, the refractive index – broadly, the speed of light in vacuum divided by its phase velocity in the sample – (w1 = 0.5794) came out at 1.4892 ± 0.0004.

Turning to `[Ca+2].[Cl-].[Cl-]` [calcium chloride] + O, under “w1 = 0.4075”, the refractive index was found to be 1.4428 ± 0.0004.

For the molecule `[Br-].[Li+]` [lithium bromide] + O, the refractive index (w1 = 0.5929) came out at 1.4744 ± 0.0004.

Consider `[Cl-].[Li+]` [lithium chloride] + O, for which the refractive index (w1 = 0.4395) stood at 1.4343 ± 0.0004.

For the origin of these results see the NIST ThermoML archive (doi:10.1021/acs.jced.6b00855).
